Here are results for 30 compounds from patent US8592456B2 (4SC Discovery GmbH, priority 2011, dated 2013).

The subject of the assay is PBMC (T cell proliferation). Put plainly: T cell proliferation assay, PHA-stimulated human PBMC (BrdU ELISA). The assay is classed as cell-based. The settings on record: read-out: IC50 (Tcell proliferation). In short, it runs like this:
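BrdU ELISA readout of proliferation at 48 hours. Cells: human PBMC from healthy donors in 10% dialyzed FCS/RPMI1640, 1×10^5 per well, activated by 2 μg/ml phytohaemagglutinin in the presence of compound.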
In general terms: Dividing cells build labelled thymidine or BrdU into new DNA.

Setting [1] is: PHA-stimulated human PBMC, 48 hours, BrdU, column D, activity classes 1-4.

SMILES strings stand for the structures. Like-named read-outs stand apart in the source and are kept apart here. Some results are limits rather than exact numbers.

In the case of `Fc1cccc(-n2ncc(-c3onc(-c4c(F)cccc4Cl)c3-c3ccsc3)c2C(F)(F)F)c1` [Example I-16, 3-(2-chloro-6-fluorophenyl)-5-(1-(3-fluorophenyl)-5-(trifluoromethyl)-1H-pyrazol-4-yl)-4-(thiophen-3-yl)isoxazole], under setting [1], the IC50 is less than 10 nM. Same read-out and setting: the value for `Fc1cccc(-n2ncc(-c3onc(-c4c(F)cccc4Cl)c3-c3ccco3)c2C(F)(F)F)c1` [Example I-17, 3-(2-chloro-6-fluorophenyl)-5-(1-(3-fluorophenyl)-5-(trifluoromethyl)-1H-pyrazol-4-yl)-4-(furan-2-yl)isoxazole] was less than 10 nM. In the case of `CCOC(=O)c1csc(-c2c(-c3c(F)cccc3Cl)noc2-c2cnn(-c3cccc(F)c3)c2C(F)(F)F)n1` [IB-1, ethyl 2-{3-(2-chloro-6-fluorophenyl)-5-[1-(3-fluorophenyl)-5-(trifluoromethyl)-1H-pyrazol-4-yl]isoxazol-4-yl}-1,3-thiazole-4-carboxylate], the IC50 under setting [1] lay in the range of 100 to 1000 nM. On to `COC(=O)c1csc(-c2c(-c3c(F)cccc3Cl)noc2-c2cnn(-c3cccc(F)c3)c2C(F)(F)F)n1` [IB-2, methyl 2-{3-(2-chloro-6-fluorophenyl)-5-[1-(3-fluorophenyl)-5-(trifluoromethyl)-1H-pyrazol-4-yl]isoxazol-4-yl}-1,3-thiazole-4-carboxylate], for which the IC50 under setting [1] was in the range of 100 to 1000 nM. As for `Cc1nnc(-c2c(-c3c(F)cccc3Cl)noc2-c2cnn(-c3cccc(Cl)c3)c2C(F)(F)F)s1` [IB-3, 3-(2-chloro-6-fluorophenyl)-5-(1-(3-chlorophenyl)-5-(trifluoromethyl)-1H-pyrazol-4-yl)-4-(5-methyl-1,3,4-thiadiazol-2-yl)isoxazole], the IC50 under setting [1] is less than 10 nM.

Consider `Cc1nnc(-c2c(-c3c(F)cccc3Cl)noc2-c2cnn(-c3cccc(Cl)c3)c2C(F)(F)F)o1` [IB-4, 2-(3-(2-chloro-6-fluorophenyl)-5-(1-(3-chlorophenyl)-5-(trifluoromethyl)-1H-pyrazol-4-yl)isoxazol-4-yl)-5-methyl-1,3,4-oxadiazole], for which the IC50 under setting [1] was less than 10 nM. Regarding `Fc1cccc(Cl)c1-c1noc(-c2cnn(-c3cccc(Cl)c3)c2C(F)(F)F)c1-c1nnco1` [IB-5, 2-(3-(2-chloro-6-fluorophenyl)-5-(1-(3-chlorophenyl)-5-(trifluoromethyl)-1H-pyrazol-4-yl)isoxazol-4-yl)-1,3,4-oxadiazole], the IC50 under setting [1] is less than 10 nM. The same measure, in the same setting: next, `Fc1cccc(Cl)c1-c1noc(-c2cnn(-c3cccc(Cl)c3)c2C(F)(F)F)c1-c1ccco1` [IB-6, 3-(2-chloro-6-fluorophenyl)-5-(1-(3-chlorophenyl)-5-(trifluoromethyl)-1H-pyrazol-4-yl)-4-(furan-2-yl)isoxazole]: less than 10 nM; `Fc1cccc(Cl)c1-c1noc(-c2cnn(-c3cccc(Cl)c3)c2C(F)(F)F)c1-c1ccoc1` [IB-7, 3-(2-chloro-6-fluorophenyl)-5-(1-(3-chlorophenyl)-5-(trifluoromethyl)-1H-pyrazol-4-yl)-4-(furan-3-yl)isoxazole]: less than 10 nM; `Fc1cccc(Cl)c1-c1noc(-c2cnn(-c3cccc(Cl)c3)c2C(F)(F)F)c1-c1nncs1` [IB-8, 3-(2-chloro-6-fluorophenyl)-5-(1-(3-chlorophenyl)-5-(trifluoromethyl)-1H-pyrazol-4-yl)-4-(1,3,4-thiadiazol-2-yl)isoxazole]: less than 10 nM.

With `Fc1ccccc1-n1ncc(-c2onc(-c3c(F)cccc3Cl)c2-c2ccoc2)c1C(F)(F)F` [IB-9, 3-(2-chloro-6-fluorophenyl)-5-(1-(2-fluorophenyl)-5-(trifluoromethyl)-1H-pyrazol-4-yl)-4-(furan-3-yl)isoxazole], the IC50 under setting [1] was in the range of 100 to 1000 nM. Regarding `Cc1nnc(-c2c(-c3c(F)cccc3Cl)noc2-c2cnn(-c3cccnc3)c2C(F)(F)F)o1` [IB-10, 2-(3-(2-chloro-6-fluorophenyl)-5-(1-(pyridin-3-yl)-5-(trifluoromethyl)-1H-pyrazol-4-yl)isoxazol-4-yl)-5-methyl-1,3,4-oxadiazole], the IC50 under setting [1] lay in the range of 100 to 1000 nM.

`CC(=O)Nc1cccc(-n2ncc(-c3onc(-c4c(F)cccc4Cl)c3-c3nnc(C)s3)c2C(F)(F)F)c1` [IB-12, N-(3-(4-(3-(2-chloro-6-fluorophenyl)-4-(5-methyl-1,3,4-thiadiazol-2-yl)isoxazol-5-yl)-5-(trifluoromethyl)-1H-pyrazol-1-yl)phenyl)acetamide]: the IC50 (Homo sapiens, 48 h) lay in the range of 1000 to 10000 nM. Consider `Fc1cccc(Cl)c1-c1noc(-c2cnn(-c3cccnc3)c2C(F)(F)F)c1-c1nnco1` [IB-15, 2-(3-(2-chloro-6-fluorophenyl)-5-(1-(pyridin-3-yl)-5-(trifluoromethyl)-1H-pyrazol-4-yl)isoxazol-4-yl)-1,3,4-oxadiazole], for which, under setting [1], the IC50 lay in the range of 100 to 1000 nM.

Take `Fc1cccc(Cl)c1-c1noc(-c2cnn(-c3ccncc3)c2C(F)(F)F)c1-c1nnco1` [IB-16, 2-(3-(2-chloro-6-fluorophenyl)-5-(1-(pyridin-4-yl)-5-(trifluoromethyl)-1H-pyrazol-4-yl)isoxazol-4-yl)-1,3,4-oxadiazole]: the IC50 under setting [1] fell in the range of 100 to 1000 nM. The same measure, in the same setting: the value for `NS(=O)(=O)c1cccc(-n2ncc(-c3onc(-c4c(F)cccc4Cl)c3-c3nnco3)c2C(F)(F)F)c1` [IB-17, 3-(4-(3-(2-chloro-6-fluorophenyl)-4-(1,3,4-oxadiazol-2-yl)isoxazol-5-yl)-5-(trifluoromethyl)-1H-pyrazol-1-yl)benzenesulfonamide] was 1000 to 10000 nM; that for `Cc1nnc(-c2c(-c3c(F)cccc3Cl)noc2-c2cnn(-c3ccccc3Cl)c2C(F)(F)F)o1` [IB-18, 2-(3-(2-chloro-6-fluorophenyl)-5-(1-(2-chlorophenyl)-5-(trifluoromethyl)-1H-pyrazol-4-yl)isoxazol-4-yl)-5-methyl-1,3,4-oxadiazole] was 1000 to 10000 nM. Take `Cc1nnc(-c2c(-c3c(F)cccc3Cl)noc2-c2cnn(-c3ccncc3)c2C(F)(F)F)o1` [IB-19, 2-(3-(2-chloro-6-fluorophenyl)-5-(1-(pyridin-4-yl)-5-(trifluoromethyl)-1H-pyrazol-4-yl)isoxazol-4-yl)-5-methyl-1,3,4-oxadiazole]: the IC50 under setting [1] is 100 to 1000 nM.

`Cc1nnc(-c2c(-c3c(F)cccc3Cl)noc2-c2cnn(-c3ccccc3Cl)c2C(F)(F)F)s1` [IB-20, 3-(2-chloro-6-fluorophenyl)-5-(1-(2-chlorophenyl)-5-(trifluoromethyl)-1H-pyrazol-4-yl)-4-(5-methyl-1,3,4-thiadiazol-2-yl)isoxazole]: the IC50 under setting [1] lay within 100 to 1000 nM. The same measure, in the same setting: the value for `Cc1nnc(-c2c(-c3c(F)cccc3Cl)noc2-c2cnn(-c3cccnc3)c2C(F)(F)F)s1` [IB-21, 3-(2-chloro-6-fluorophenyl)-4-(5-methyl-1,3,4-thiadiazol-2-yl)-5-(1-(pyridin-3-yl)-5-(trifluoromethyl)-1H-pyrazol-4-yl)isoxazole] was 10 to 100 nM; that for `Cc1nnc(-c2c(-c3c(F)cccc3Cl)noc2-c2cnn(-c3ccncc3)c2C(F)(F)F)s1` [IB-22, 3-(2-chloro-6-fluorophenyl)-4-(5-methyl-1,3,4-thiadiazol-2-yl)-5-(1-(pyridin-4-yl)-S-(trifluoromethyl)-1H-pyrazol-4-yl)isoxazole] was 100 to 1000 nM; that for `Cc1nnc(-c2c(-c3c(F)cccc3Cl)noc2-c2cnn(-c3cccc(S(N)(=O)=O)c3)c2C(F)(F)F)s1` [IB-23, 3-(4-(3-(2-chloro-6-fluorophenyl)-4-(5-methyl-1,3,4-thiadiazol-2-yl)isoxazol-5-yl)-5-(trifluoromethyl)-1H-pyrazol-1-yl)benzenesulfonamide] was 1000 to 10000 nM. For `Fc1cccc(Cl)c1-c1noc(-c2cnn(-c3ccncc3)c2C(F)(F)F)c1-c1ccoc1` [IB-24, 3-(2-chloro-6-fluorophenyl)-4-(furan-3-yl)-5-(1-(pyridin-4-yl)-5-(trifluoromethyl)-1H-pyrazol-4-yl)isoxazole], the IC50 under setting [1] lay within 10 to 100 nM. The same measure, in the same setting: the value for `Fc1cccc(Cl)c1-c1noc(-c2cnn(-c3ccccn3)c2C(F)(F)F)c1-c1nnco1` [IB-25, 2-(3-(2-chloro-6-fluorophenyl)-5-(1-(pyridin-2-yl)-5-(trifluoromethyl)-1H-pyrazol-4-yl)isoxazol-4-yl)-1,3,4-oxadiazole] was 10 to 100 nM. Regarding `Cc1nnc(-c2c(-c3c(F)cccc3Cl)noc2-c2cnn(-c3ccccn3)c2C(F)(F)F)o1` [IB-26, 2-(3-(2-chloro-6-fluorophenyl)-5-(1-(pyridin-2-yl)-5-(trifluoromethyl)-1H-pyrazol-4-yl)isoxazol-4-yl)-5-methyl-1,3,4-oxadiazole], the IC50 under setting [1] lay in the range of 100 to 1000 nM. For the compound `Cc1nnc(-c2c(-c3c(F)cccc3Cl)noc2-c2cnn(-c3ccccn3)c2C(F)(F)F)s1` [IB-27, 3-(2-chloro-6-fluorophenyl)-4-(5-methyl-1,3,4-thiadiazol-2-yl)-5-(1-(pyridin-2-yl)-5-(trifluoromethyl)-1H-pyrazol-4-yl)isoxazole], the IC50 under setting [1] was in the range of 10 to 100 nM. As for `Fc1ccccc1-n1ncc(-c2onc(-c3c(F)cccc3Cl)c2-c2cnco2)c1C(F)(F)F` [IB-28, 3-(2-chloro-6-fluorophenyl)-5-(1-(2-fluorophenyl)-5-(trifluoromethyl)-1H-pyrazol-4-yl)-4-(oxazol-5-yl)isoxazole], the IC50 under setting [1] was 100 to 1000 nM. Turning to `Fc1cccc(Cl)c1-c1noc(-c2cnn(-c3ccccc3Cl)c2C(F)(F)F)c1-c1nccs1` [IB-29, 3-(2-chloro-6-fluorophenyl)-5-(1-(2-chlorophenyl)-5-(trifluoromethyl)-1H-pyrazol-4-yl)-4-(thiazol-2-yl)isoxazole], for the setting “Homo sapiens, 48 h”, the IC50 lay within 1000 to 10000 nM. As to `Fc1ccccc1-n1ncc(-c2onc(-c3c(F)cccc3Cl)c2-c2nccs2)c1C(F)(F)F` [IB-30, 3-(2-chloro-6-fluorophenyl)-5-(1-(2-fluorophenyl)-5-(trifluoromethyl)-1H-pyrazol-4-yl)-4-(thiazol-2-yl)isoxazole], under setting [1], the IC50 was 10 to 100 nM.

On to `COc1cccc(Cl)c1-c1noc(-c2cnn(-c3cccnc3)c2C(F)(F)F)c1-c1cnco1` [IB-31, 3-(2-chloro-6-methoxyphenyl)-4-(oxazol-5-yl)-5-(1-(pyridin-3-yl)-5-(trifluoromethyl)-1H-pyrazol-4-yl)isoxazole], for which the IC50 under setting [1] is 1000 to 10000 nM.
